The results in this text go back to patent publication US20260138961A1, “MODULATORS OF MITOCHONDRIAL DNA REPLICATION” (Pretzel Therapeutics, Inc., priority 2022, published 2026).

Each structure is given as a SMILES string.

The first assay concerns the target T1, wild type human POLγ (POLγA:WT) (Homo sapiens, UniProt P54098).
T1 sequence (P54098 1-1239): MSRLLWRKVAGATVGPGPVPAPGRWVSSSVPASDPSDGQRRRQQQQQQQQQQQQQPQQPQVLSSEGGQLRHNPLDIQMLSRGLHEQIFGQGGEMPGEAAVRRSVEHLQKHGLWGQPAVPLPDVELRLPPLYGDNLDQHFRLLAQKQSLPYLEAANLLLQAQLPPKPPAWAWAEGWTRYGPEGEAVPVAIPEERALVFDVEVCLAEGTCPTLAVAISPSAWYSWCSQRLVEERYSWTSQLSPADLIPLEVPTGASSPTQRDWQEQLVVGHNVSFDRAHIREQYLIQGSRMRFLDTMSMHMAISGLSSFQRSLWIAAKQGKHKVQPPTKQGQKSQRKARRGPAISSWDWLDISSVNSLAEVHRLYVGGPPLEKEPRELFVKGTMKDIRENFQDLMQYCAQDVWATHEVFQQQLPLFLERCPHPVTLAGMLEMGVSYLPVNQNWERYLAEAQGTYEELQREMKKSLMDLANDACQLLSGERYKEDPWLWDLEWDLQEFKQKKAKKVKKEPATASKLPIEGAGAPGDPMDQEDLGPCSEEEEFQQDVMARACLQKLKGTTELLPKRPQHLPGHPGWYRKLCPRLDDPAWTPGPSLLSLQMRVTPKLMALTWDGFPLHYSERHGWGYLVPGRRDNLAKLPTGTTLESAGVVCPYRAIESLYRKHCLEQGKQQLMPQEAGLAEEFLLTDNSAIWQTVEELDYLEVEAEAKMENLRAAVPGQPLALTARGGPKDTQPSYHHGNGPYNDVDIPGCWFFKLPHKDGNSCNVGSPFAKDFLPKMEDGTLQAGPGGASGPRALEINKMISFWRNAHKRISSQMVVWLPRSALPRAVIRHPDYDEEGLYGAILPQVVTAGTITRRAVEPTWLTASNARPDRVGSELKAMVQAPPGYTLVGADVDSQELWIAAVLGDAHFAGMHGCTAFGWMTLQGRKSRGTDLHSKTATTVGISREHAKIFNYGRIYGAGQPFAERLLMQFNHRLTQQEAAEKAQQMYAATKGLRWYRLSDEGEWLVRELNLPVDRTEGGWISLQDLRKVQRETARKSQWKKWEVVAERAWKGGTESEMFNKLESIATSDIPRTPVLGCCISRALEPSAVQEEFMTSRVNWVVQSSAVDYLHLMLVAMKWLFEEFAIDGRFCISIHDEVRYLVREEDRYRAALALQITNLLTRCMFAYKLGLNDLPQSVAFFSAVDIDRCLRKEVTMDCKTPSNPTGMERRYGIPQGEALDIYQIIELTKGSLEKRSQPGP
T1 sequence (Q9UHN1 1-485 partner): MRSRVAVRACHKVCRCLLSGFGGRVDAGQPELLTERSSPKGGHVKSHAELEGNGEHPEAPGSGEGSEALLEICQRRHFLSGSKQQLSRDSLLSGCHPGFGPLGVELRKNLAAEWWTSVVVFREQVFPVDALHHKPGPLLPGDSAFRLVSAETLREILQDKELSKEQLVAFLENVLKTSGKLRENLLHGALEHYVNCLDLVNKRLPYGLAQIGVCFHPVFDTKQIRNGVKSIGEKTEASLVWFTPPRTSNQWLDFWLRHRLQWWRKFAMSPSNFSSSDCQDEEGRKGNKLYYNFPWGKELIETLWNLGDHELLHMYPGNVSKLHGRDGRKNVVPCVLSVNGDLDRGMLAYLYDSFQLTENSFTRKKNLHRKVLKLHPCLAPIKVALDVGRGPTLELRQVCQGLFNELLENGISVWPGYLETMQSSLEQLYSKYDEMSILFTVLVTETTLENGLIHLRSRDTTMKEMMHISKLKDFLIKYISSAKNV
The assay can be described thus: DNA polymerization assay, wild type POLγ. Type of assay: biochemical. The following applies: 0.1 μM dNTP, read-out: WT AC50 (μM) at 0.1 μM.
Take `COCCN(C)C(=O)c1cccc(NS(=O)(=O)c2cc(C)c(Cl)cc2C)c1` [Example 58, 3-((4-chloro-2,5-dimethylphenyl)sulfonamido)-N-(2-methoxyethyl)-N-methylbenzamide]: the AC50 was 3 µM.
Same read-out and setting: the value for `Cc1ccc(C)c(S(=O)(=O)Nc2cccc(C(=O)N3CCOCC3)c2)c1` [Example 29, 2,5-dimethyl-N-(3-(morpholine-4-carbonyl)phenyl)benzenesulfonamide] was 2 µM.
Still for that read-out and setting: the value for `Cc1cc(S(=O)(=O)Nc2cc(C(=O)N3CCC[C@H]3C)ccc2F)c(C)cc1Cl` [Example 50, (R)-4-chloro-N-(2-fluoro-5-(2-methylpyrrolidine-1-carbonyl)phenyl)-2,5-dimethylbenzenesulfonamide] was 1 µM; that for `CC(=O)N1CCN(C(=O)c2cccc(NS(=O)(=O)c3cc(C)ccc3C)c2)CC1` [Example 30, N-(3-(4-acetylpiperazine-1-carbonyl)phenyl)-2,5-dimethylbenzenesulfonamide] was 2 µM.

Staying with this assay, now noted: 1 μM dNTP, read-out: WT AC50 (μM) at 1 μM.
Take `COc1ccccc1-c1nc(NS(=O)(=O)c2cc(C)c(Cl)cc2C)cs1` [Example 155, 4-chloro-N-(2-(2-methoxyphenyl)thiazol-4-yl)-2,5-dimethylbenzenesulfonamide]: the AC50 worked out at 0.4 µM.

The same assay, now with this note: 100 μM dNTP, read-out: WT AC50 (μM) at 100 μM.
As to `Cc1cc(S(=O)(=O)Nc2ccc3ccn(C(C)C)c3c2)c(C)cc1Cl` [Example 69, 4-chloro-N-(1-isopropyl-1H-indol-6-yl)-2,5-dimethylbenzenesulfonamide], the AC50 was 1 µM.
Still for that read-out and setting: the value for `Cc1cc(S(=O)(=O)Nc2cccc(-c3cc(C4CC4)[nH]n3)c2)c(C)cc1Cl` [Example 64, 4-chloro-N-(3-(5-cyclopropyl-1H-pyrazol-3-yl)phenyl)-2,5-dimethylbenzenesulfonamide] was 0.7 µM; that for `Cc1cc(S(=O)(=O)Nc2csc(-c3ccccn3)n2)c(C)cc1Cl` [Example 173, 4-chloro-2,5-dimethyl-N-(2-(pyridin-2-yl)thiazol-4-yl)benzenesulfonamide] was 0.2 µM.
The same measure, in the same setting: the value for `Cc1nc2ccc(NS(=O)(=O)c3cc(C)c(Cl)cc3C)cc2o1` [Example 70, 4-chloro-2,5-dimethyl-N-(2-methylbenzo[d]oxazol-6-yl)benzenesulfonamide] was 11 µM; that for `Cc1cc(S(=O)(=O)Nc2csc(C(=O)N(C)CC(N)=O)n2)c(C)cc1Cl` [Example 172, N-(2-amino-2-oxoethyl)-4-((4-chloro-2,5-dimethylphenyl)sulfonamido)-N-methylthiazole-2-carboxamide] was greater than 100 µM.
For the compound `Cc1cc(S(=O)(=O)Nc2csc(C(=O)N(CC(N)=O)C3CCCC3)n2)c(C)cc1Cl` [Example 177, N-(2-amino-2-oxoethyl)-4-((4-chloro-2,5-dimethylphenyl)sulfonamido)-N-cyclopentylthiazole-2-carboxamide], the AC50 was greater than 100 µM.
The same measure, in the same setting: the value for `COc1cccc(-c2nc(NS(=O)(=O)c3cc(C)c(Cl)cc3C)cs2)c1` [Example 165, 4-chloro-N-(2-(3-methoxyphenyl)thiazol-4-yl)-2,5-dimethylbenzenesulfonamide] was 0.7 µM.
Turning to `Cc1cc(S(=O)(=O)Nc2nc(-c3ccccc3)n(C)n2)c(C)cc1Cl` [Example 180, 4-chloro-2,5-dimethyl-N-(1-methyl-5-phenyl-1H-1,2,4-triazol-3-yl)benzenesulfonamide], the AC50 was greater than 10 µM.
Consider `Cc1cc2cc(NS(=O)(=O)c3cc(C)c(Cl)cc3C)ccc2[nH]1` [Example 184, 4-chloro-2,5-dimethyl-N-(2-methyl-1H-indol-5-yl)benzenesulfonamide], for which the AC50 is greater than 100 µM.
With `Cc1ccc(C)c(S(=O)(=O)Nc2cccc(-c3nccs3)c2)c1` [Example 60], the AC50 was 0.6 µM.
The same measure, in the same setting: the value for `Cc1cc(S(=O)(=O)Nc2csc(C(=O)N3CCC[C@H]3C)n2)c(C)cc1Cl` [Example 174, (R)-4-chloro-2,5-dimethyl-N-(2-(2-methylpyrrolidine-1-carbonyl)thiazol-4-yl)benzenesulfonamide] was 0.1 µM.
On the same count and under the same terms, the value for `Cc1cc(S(=O)(=O)Nc2cnn(-c3ccccc3)n2)c(C)cc1Cl` [Example 171, 4-chloro-2,5-dimethyl-N-(2-phenyl-2H-1,2,3-triazol-4-yl)benzenesulfonamide] was 5 µM.
Still for that read-out and setting: the value for `Cc1cc(S(=O)(=O)Nc2csc(C(=O)N(CC(N)=O)C3CCCCC3)n2)c(C)cc1Cl` [Example 179, N-(2-amino-2-oxoethyl)-4-((4-chloro-2,5-dimethylphenyl)sulfonamido)-N-cyclohexylthiazole-2-carboxamide] was greater than 10 µM; that for `Cc1cc(-c2cccc(NS(=O)(=O)c3cc(C)c(Cl)cc3C)c2)n[nH]1` [Example 66, 4-chloro-2,5-dimethyl-N-(3-(5-methyl-1H-pyrazol-3-yl)phenyl)benzenesulfonamide] was 0.5 µM; that for `Cc1cc(S(=O)(=O)Nc2cn(-c3ccccc3)cn2)c(C)cc1Cl` [Example 169, 4-chloro-2,5-dimethyl-N-(1-phenyl-1H-imidazol-4-yl)benzenesulfonamide] was greater than 10 µM.
Turning to `Cc1cc(S(=O)(=O)Nc2cccc(C(=O)N3CCCC34CC4)c2)c(C)cc1Cl` [Example 162, N-(3-(4-azaspiro[2.4]heptane-4-carbonyl)phenyl)-4-chloro-2,5-dimethylbenzenesulfonamide], the AC50 was 0.4 µM.
For `Cc1cc(S(=O)(=O)Nc2csc(-n3cccn3)n2)c(C)cc1Cl` [Example 178, N-(2-(1H-pyrazol-1-yl)thiazol-4-yl)-4-chloro-2,5-dimethylbenzenesulfonamide], the AC50 was greater than 100 µM.
As for `Cc1cc(S(=O)(=O)Nc2cccc(-c3cc[nH]n3)c2)c(C)cc1Cl` [Example 68, N-(3-(1H-pyrazol-3-yl)phenyl)-4-chloro-2,5-dimethylbenzenesulfonamide], the AC50 turned out to be 0.2 µM.
For the compound `Cc1cc(S(=O)(=O)Nc2cccc(C(=O)N3CCC[C@H]3C(C)C)c2)c(C)cc1Cl` [Example 67, (S)-4-chloro-N-(3-(2-isopropylpyrrolidine-1-carbonyl)phenyl)-2,5-dimethylbenzenesulfonamide], the AC50 is greater than 10 µM.
Take `Cc1csc(-c2cccc(NS(=O)(=O)c3cc(C)c(Cl)cc3C)c2)n1` [Example 20, 4-chloro-2,5-dimethyl-N-(3-(4-methylthiazol-2-yl)phenyl)benzenesulfonamide]: the AC50 came out at 0.3 µM.

In general, AC50 refers to the concentration giving half of the maximal activity seen.
